The IC50 is the midpoint of a concentration-inhibition curve.

The values that follow come from patent US11535598B2, “Histone deacetylases (HDACs) inhibitors” (ANNJI PHARMACEUTICAL CO., LTD., priority 2017, dated 2022).

One data set has as its system U87MG. The settings on record: human, 72 h.
Data set [1] in a line: in vitro. The settings on record: human.
Experimental: (§5) Cells were seeded in 96-well plates at a density of 5×10^3 cells per well and allowed to attach for 24 h before compound treatment. […] At end of the treatment period 72 h, 20 μl (5 mg/mL) 3-(4,5-dimethylthiazol-2-yl)-2,5-diphenyl-tetrazolium bromide (MTT) reagent was added each well. After 4 h incubation at 37° C., the supernatant was aspirated and the formazan crystals were dissolved in 100 μl of DMSO at 37° C. for 10 min with gentle agitation. The absorbance was measured at 570 nm using the Molecular Devices Microplate Reader. […] IC50 values were calculated from the relative viability values and concentrations by regression analysis.
The next data set deals with Human HDAC8 (Homo sapiens (Human), UniProt Q9BY41). Kind of data set: HDAC enzymatic assay, HDAC8. It is filed as biochemical. The settings on record: 10-dose IC50 mode with a 3-fold serial dilution; read-out: HDAC subtypes IC50 HDAC8. On the procedure: (§1) The IC50 values for aforementioned compounds against HDACs were determined. HDAC 1 to 11 can be assayed by using acetylated AMC-labeled peptide substrate.
(§2) Human HDAC1 GenBank Accession No. NM_004964): Full length with C-terminal GST tag, MW=79.9 kDa, Human HDAC2 (GenBank Accession No. Q92769): Full length with C-terminal His tag, MW=60 kDa. Human HDAC3/NcoR2 (GenBank Accession No. […] for HDAC3, GenBank Accession No. NM_006312 for NcoR2): Complex of human HDAC3, full length with C-terminal His tag, MW=49.7 kDa, and human NCOR2, N-terminal GST tag, MW=39 kDa. Human HDAC6 (GenBank Accession No. BC069243): Full length with N-terminal GST tag, MW=159 kDa. Human HDAC8 (GenBank Accession No. NM018486): Full length, MW=42 kDa, expressed in an E. coli expression system.
(§3) 50 μM HDAC substrate. 1% DMSO final. Incubation for 2 hours at 30° C.

In another data set the target is Human HDAC11 (Homo sapiens (Human), UniProt Q96DB2). Kind of data set: HDAC enzymatic assay, HDAC11. As to conditions: 10-dose IC50 mode with a 3-fold serial dilution; read-out: HDAC subtypes IC50 HDAC11. It is filed as biochemical. The method, then: as §1, §2
(§4) Human HDAC1, Human HDAC2, Human HDAC3/NcoR2, Human HDAC6, Human HDAC10, and Human HDAC11 were all expressed by baculovirus expression system in Sf9 cells.
as §3

A further data set deals with Human HDAC1 (Homo sapiens (Human), UniProt Q13547). Kind of data set: HDAC enzymatic assay, HDAC1. It is filed as biochemical. As to conditions: 10-dose IC50 mode with a 3-fold serial dilution; read-out: HDAC subtypes IC50 HDAC1. The method, then:
as §1, §2, §4, §3

The next data set has as its system PANC1. The settings on record: human, 72 h.
Another data set deals with A549. As to conditions: human, 72 h.
Another data set concerns HepG2. As to conditions: human, 72 h.
The target in another data set is Human HDAC6 (Homo sapiens (Human), UniProt Q9UBN7). The data set is described as follows: HDAC enzymatic assay, HDAC6. Type of data set: biochemical. As to conditions: 10-dose IC50 mode with a 3-fold serial dilution; read-out: HDAC subtypes IC50 HDAC6. The method, then:
as §1, §2, §4, §3

A short description of data set [2]: in vitro. The settings on record: monkey.
Experimental: as §5
The subject of another data set is LNCap. As to conditions: human, 72 h.

Human HDAC1, sequence (Q13547 whole entry): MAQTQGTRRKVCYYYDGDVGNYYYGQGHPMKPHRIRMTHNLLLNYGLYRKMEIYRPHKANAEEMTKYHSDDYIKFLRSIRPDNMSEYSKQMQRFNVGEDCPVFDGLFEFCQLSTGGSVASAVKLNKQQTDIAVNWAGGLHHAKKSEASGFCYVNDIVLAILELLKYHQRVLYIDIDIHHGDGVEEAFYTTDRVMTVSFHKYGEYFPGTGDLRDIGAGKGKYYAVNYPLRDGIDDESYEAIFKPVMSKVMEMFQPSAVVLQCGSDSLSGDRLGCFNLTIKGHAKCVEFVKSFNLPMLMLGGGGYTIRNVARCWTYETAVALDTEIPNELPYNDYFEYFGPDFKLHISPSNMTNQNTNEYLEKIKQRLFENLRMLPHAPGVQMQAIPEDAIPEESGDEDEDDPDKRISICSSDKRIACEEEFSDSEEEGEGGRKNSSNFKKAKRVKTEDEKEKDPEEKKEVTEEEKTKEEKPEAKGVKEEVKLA
Human HDAC8, sequence (Q9BY41 whole entry): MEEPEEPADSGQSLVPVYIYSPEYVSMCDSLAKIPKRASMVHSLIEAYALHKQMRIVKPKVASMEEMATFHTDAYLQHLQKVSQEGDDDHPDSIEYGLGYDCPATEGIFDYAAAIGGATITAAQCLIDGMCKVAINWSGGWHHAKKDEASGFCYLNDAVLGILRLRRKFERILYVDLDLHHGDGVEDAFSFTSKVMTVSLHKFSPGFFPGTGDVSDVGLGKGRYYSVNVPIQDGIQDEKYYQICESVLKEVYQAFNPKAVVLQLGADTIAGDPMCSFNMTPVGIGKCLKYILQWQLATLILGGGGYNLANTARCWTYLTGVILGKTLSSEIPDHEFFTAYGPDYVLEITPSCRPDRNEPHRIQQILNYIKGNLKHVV
Human HDAC11, sequence (Q96DB2 whole entry): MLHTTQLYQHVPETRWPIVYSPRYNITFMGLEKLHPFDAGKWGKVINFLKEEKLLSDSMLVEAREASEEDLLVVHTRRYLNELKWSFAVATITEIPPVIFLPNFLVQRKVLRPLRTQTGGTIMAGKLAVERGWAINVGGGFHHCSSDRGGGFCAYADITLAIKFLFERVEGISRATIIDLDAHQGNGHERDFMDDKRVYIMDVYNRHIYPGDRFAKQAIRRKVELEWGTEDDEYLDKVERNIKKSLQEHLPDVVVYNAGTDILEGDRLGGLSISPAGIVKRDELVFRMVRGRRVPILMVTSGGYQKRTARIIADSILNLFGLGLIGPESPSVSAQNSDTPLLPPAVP
Human HDAC6, sequence (Q9UBN7 whole entry): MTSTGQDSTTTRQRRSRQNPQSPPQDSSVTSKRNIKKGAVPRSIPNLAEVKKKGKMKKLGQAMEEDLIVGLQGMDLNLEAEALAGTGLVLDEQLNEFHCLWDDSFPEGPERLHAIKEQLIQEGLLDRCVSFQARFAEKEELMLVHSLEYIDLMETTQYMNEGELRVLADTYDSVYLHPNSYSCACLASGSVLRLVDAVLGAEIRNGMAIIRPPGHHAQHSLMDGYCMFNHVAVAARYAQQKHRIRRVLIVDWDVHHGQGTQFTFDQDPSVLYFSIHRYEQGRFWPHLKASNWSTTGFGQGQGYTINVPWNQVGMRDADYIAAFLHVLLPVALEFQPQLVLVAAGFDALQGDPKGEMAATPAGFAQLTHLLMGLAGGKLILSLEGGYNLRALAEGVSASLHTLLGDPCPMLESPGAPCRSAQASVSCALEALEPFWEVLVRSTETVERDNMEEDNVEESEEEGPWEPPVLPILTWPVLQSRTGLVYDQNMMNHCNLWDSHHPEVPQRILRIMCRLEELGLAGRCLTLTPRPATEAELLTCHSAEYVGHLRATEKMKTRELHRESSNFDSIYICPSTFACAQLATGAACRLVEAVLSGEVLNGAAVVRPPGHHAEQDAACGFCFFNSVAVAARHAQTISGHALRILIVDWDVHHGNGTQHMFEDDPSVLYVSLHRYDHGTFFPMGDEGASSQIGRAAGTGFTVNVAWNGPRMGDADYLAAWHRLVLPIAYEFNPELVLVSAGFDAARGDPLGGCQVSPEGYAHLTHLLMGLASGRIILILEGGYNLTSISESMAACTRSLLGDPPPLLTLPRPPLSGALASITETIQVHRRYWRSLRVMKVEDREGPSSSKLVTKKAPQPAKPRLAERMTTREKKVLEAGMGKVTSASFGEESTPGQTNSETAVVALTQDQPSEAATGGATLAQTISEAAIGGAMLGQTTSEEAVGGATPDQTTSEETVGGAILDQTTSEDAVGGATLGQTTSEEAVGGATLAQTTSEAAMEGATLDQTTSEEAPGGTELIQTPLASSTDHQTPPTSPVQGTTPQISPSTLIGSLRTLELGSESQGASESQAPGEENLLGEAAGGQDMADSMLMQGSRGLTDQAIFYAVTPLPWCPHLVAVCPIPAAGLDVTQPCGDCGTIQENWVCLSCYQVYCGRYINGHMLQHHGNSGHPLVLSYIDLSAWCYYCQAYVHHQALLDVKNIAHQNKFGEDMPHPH
Experimental for A549: as §5
Experimental for HepG2: as §5
Experimental for LNCap: as §5
Experimental for PANC1: as §5
Experimental for U87MG: as §5

In the case of `O=C(NO)c1ccc(Cn2c(=O)n(Cc3ccccc3)c(=O)c3ccccc32)cc1` [Compound 11, 4-((3-benzyl-2,4-dioxo-3,4-dihydroquinazolin-1(2H)-yl)methyl)-N-hydroxybenzamide], the IC50 with U87MG was determined as 4.08 ± 0.11 µM; at Human HDAC8, 0.486 µM; at Human HDAC11 it was 37.5 µM; on Human HDAC1 it was 15.8 µM; with PANC1, 6.13 ± 0.17 µM; in the data set with A549, 4.78 ± 0.11 µM. Besides, the results for the IC50 in the data set on HepG2, at Human HDAC6 and with LNCap were 4.39 ± 0.07 µM, 0.024 µM and 2.93 ± 0.62 µM, respectively. Besides, the IC50 at 72 h in “in vitro [1]” was 89.18 ± 0.62 µM; in “in vitro [2]”, 97.25 ± 0.31 µM.

Turning to `O=C(NO)c1ccc(Cn2c(=O)n(CCc3ccccc3)c(=O)c3ccc(F)cc32)cc1` [Compound 1, 4-((7-fluoro-2,4-dioxo-3-phenethyl-3,4-dihydroquinazolin-1(2H)-yl)methyl)-N-hydroxybenzamide], the concentration for half-maximal inhibition (IC50) at Human HDAC8 turned out to be 0.095 µM; at Human HDAC11, 15.4 µM; at Human HDAC1, 9.41 µM; at Human HDAC6 it was 0.008 µM.

Regarding `O=C(NO)c1ccc(Cn2c(=O)n(CCc3ccccc3O)c(=O)c3ccccc32)cc1` [Compound 18, N-hydroxy-4-((3-(2-hydroxyphenethyl)-2,4-dioxo-3,4-dihydroquinazolin-1(2H)-yl)methyl)benzamide], the IC50 on Human HDAC8 stood at 0.4 µM; on Human HDAC11, 16.7 µM; on Human HDAC1, 8.83 µM; on Human HDAC6, 0.006 µM.

Turning to `O=C(NO)c1ccc(Cn2c(=O)n(CCc3ccc(N4CCOCC4)cc3)c(=O)c3ccccc32)cc1` [Compound 30, N-hydroxy-4-((3-(4-morpholinophenethyl)-2,4-dioxo-3,4-dihydroquinazolin-1(2H)-yl)methyl)benzamide], the IC50 at Human HDAC8 was 0.979 µM; on Human HDAC11, 22.8 µM; on Human HDAC1 it was 9.79 µM; at Human HDAC6, 0.014 µM.

With `O=C(NO)c1ccc(Cn2c(=O)n(CCc3cccs3)c(=O)c3ccccc32)cc1` [Compound 24, 4-((2,4-dioxo-3-(2-(thiophen-2-yl)ethyl)-3,4-dihydroquinazolin-1(2H)-yl)methyl)-N-hydroxybenzamide], the IC50 is 4.18 ± 0.22 µM in the data set on U87MG; 0.287 µM at Human HDAC8; 10 µM at Human HDAC11; 10.7 µM on Human HDAC1; more than 10 µM in the data set on PANC1; 4.69 ± 0.17 µM in the data set with A549. The IC50 in the data set with HepG2 came to 4.11 ± 0.27 µM; at Human HDAC6, 0.011 µM; in the data set on LNCap it was 3.83 ± 0.17 µM. The IC50 at 72 h was 60.41 ± 0.22 µM in the data set “in vitro [1]” and 76.31 ± 0.32 µM in the data set “in vitro [2]”.

Consider `COc1ccc2c(=O)n(CCc3ccccc3)c(=O)n(Cc3ccc(C(=O)NO)cc3)c2c1` [Compound 2, N-hydroxy-4-((7-methoxy-2,4-dioxo-3-phenethyl-3,4-dihydroquinazol-1(2H)-yl)methyl)benzamide], for which the IC50 in the data set on U87MG is more than 10 µM; at Human HDAC8 it was 0.731 µM; at Human HDAC1 it was 12 µM; in the data set with PANC1, more than 10 µM; in the data set on A549 it was more than 10 µM; in the data set on HepG2, more than 10 µM. The IC50 is 0.051 µM on Human HDAC6 and more than 10 µM in the data set on LNCap. Also, the IC50 at 72 h in the data set “in vitro [1]” is more than 200 µM; in the data set “in vitro [2]”, more than 10 µM.

On to `O=C(NO)c1ccc(Cn2c(=O)n(CCc3ccccc3)c(=O)c3ccsc32)cc1` [Compound 21, 4-((2,4-dioxo-3-phenethyl-3,4-dihydrothieno[2,3-d]pyrimidin-1(2H)-yl)methyl)-N-hydroxybenzamide], for which the IC50 turned out to be 2.93 ± 0.13 µM in the data set with U87MG; 0.169 µM at Human HDAC8; 5.69 µM at Human HDAC11; 6.66 µM on Human HDAC1; 4.72 ± 0.37 µM with PANC1; 3.22 ± 0.31 µM in the data set on A549. The IC50 in the data set with HepG2 amounted to 3.55 ± 0.14 µM; on Human HDAC6, 0.015 µM; in the data set with LNCap, 0.98 ± 0.06 µM. The IC50 at 72 h in “in vitro [1]” turned out to be 63.11 ± 0.17 µM; in the data set “in vitro [2]” it was 81.51 ± 0.18 µM.

As to `O=C(NO)c1ccc(Cn2c(=O)n(CCc3ccccc3)c(=O)c3cccnc32)cc1` [Compound 12, 4-((2,4-dioxo-3-phenethyl-3,4-dihydropyrido[2,3-d]pyrimidin-1(2H)-yl)methyl)-N-hydroxybenzamide], the IC50 in the data set with U87MG is 9.12 ± 0.23 µM; at Human HDAC8 it was 1.07 µM; on Human HDAC11, 25.1 µM; at Human HDAC1, 11.2 µM; with PANC1, more than 10 µM; in the data set with A549, more than 10 µM. The results for the IC50 in the data set on HepG2, at Human HDAC6 and in the data set with LNCap were more than 10 µM, 0.028 µM and 7.53 ± 0.23 µM, respectively. For the same compound, the results for the IC50 at 72 h in “in vitro [1]” and in “in vitro [2]” were 159.1 ± 0.44 µM and 166.4 ± 0.39 µM, respectively.

For the compound `CNc1ccc(CCn2c(=O)c3ccccc3n(Cc3ccc(C(=O)NO)cc3)c2=O)cc1` [Compound 29, N-hydroxy-4-((3-(4-(methylamino)phenethyl)-2,4-dioxo-3,4-dihydroquinazolin-1(2H)-yl)methyl)benzamide], the IC50 amounted to 1.42 µM on Human HDAC8, 3.8 µM on Human HDAC11, 4.38 µM at Human HDAC1 and 0.025 µM on Human HDAC6.

On to `O=C(NO)c1cc(Cn2c(=O)n(CCc3ccccc3)c(=O)c3ccccc32)cs1` [Compound 25, 4-((2,4-dioxo-3-phenethyl-3,4-dihydroquinazolin-1(2H)-yl)methyl)-N-hydroxythiophene-2-carboxamide], for which the IC50 in the data set with U87MG is 5.23 ± 0.21 µM; at Human HDAC8 it was 1.19 µM; on Human HDAC11, 129 µM; on Human HDAC1, more than 30 µM; in the data set on PANC1, 8.13 ± 0.28 µM; in the data set with A549 it was 6.25 ± 0.33 µM. For the same compound, the IC50 with HepG2 stood at 5.31 ± 0.37 µM; on Human HDAC6, 1.19 µM; in the data set on LNCap, 5.77 ± 0.46 µM. For the same compound, the values for the IC50 at 72 h in the data set “in vitro [1]” and in “in vitro [2]” were 105.1 ± 0.25 µM and 106.3 ± 0.29 µM, respectively.

With `N#Cc1ccc2c(=O)n(CCc3ccccc3)c(=O)n(Cc3cccc(C(=O)NO)c3)c2c1` [Compound 7, 3-((7-cyano-2,4-dioxo-3-phenethyl-3,4-dihydroquinazolin-1(2H)-yl)methyl)-N-hydroxybenzamide], the IC50 was 0.235 µM on Human HDAC8, more than 10 µM at Human HDAC1 and 4.45 µM at Human HDAC6.

`O=C(NO)C(F)(F)c1ccc(Cn2c(=O)n(CCc3ccccc3)c(=O)c3ccccc32)cc1` [Compound 20, 2-(4-((2,4-dioxo-3-phenethyl-3,4-dihydroquinazolin-1(2H)-yl)methyl)phenyl)-2,2-difluoro-N-hydroxyacetamide]: the IC50 with U87MG was 9.67 ± 0.66 µM; in the data set on PANC1, more than 10 µM; in the data set with A549 it was more than 10 µM; with HepG2 it was 7.43 ± 0.27 µM; in the data set on LNCap, 9.97 ± 0.08 µM. The IC50 at 72 h in the data set “in vitro [1]” and in the data set “in vitro [2]” was more than 200 µM each time.

As for `O=C(NO)c1ccc(Cn2c(=O)n(CCc3ccccc3)c(=O)c3ccc(C4CC4)cc32)cc1` [Compound 27, 4-((7-cyclopropyl-2,4-dioxo-3-phenethyl-3,4-dihydroquinazolin-1(2H)-yl)methyl)-N-hydroxybenzamide], the IC50 at Human HDAC8 came out at 3.06 µM; at Human HDAC11 it was 10.5 µM; on Human HDAC1 it was 14.5 µM; on Human HDAC6, 0.168 µM.

Take `Cn1c(=O)c2ccc(Cl)cc2n(Cc2ccc(C(=O)NO)cc2)c1=O` [Compound 10, 4-((7-chloro-3-methyl-2,4-dioxo-3,4-dihydroquinazolin-1(2H)-yl)methyl)-N-hydroxybenzamide]: the IC50 was found to be 7.63 ± 0.12 µM in the data set with U87MG; 0.523 µM at Human HDAC8; 2.72 µM at Human HDAC1; 9.04 ± 0.21 µM with PANC1; 8.15 ± 0.17 µM in the data set on A549; 6.65 ± 0.22 µM in the data set on HepG2. The IC50 at Human HDAC6 is 0.004 µM; in the data set with LNCap it was 4.72 ± 0.16 µM. In addition, the 50% inhibitory concentration (IC50) at 72 h in “in vitro [1]” is 85.33 ± 0.34 µM; in “in vitro [2]”, 93.24 ± 0.37 µM.

As for `O=C(NO)c1cccc(Cn2c(=O)n(CCc3ccccc3)c(=O)c3ccccc32)c1` [Compound 6, 3-((2,4-dioxo-3-phenethyl-3,4-dihydroquinazolin-1(2H)-yl)methyl)-N-hydroxybenzamide], the IC50 in the data set on U87MG is 3.75 ± 0.13 µM; at Human HDAC8 it was 0.653 µM; on Human HDAC11 it was more than 10 µM; at Human HDAC1, more than 10 µM; with PANC1, 5.12 ± 0.32 µM; in the data set with A549, 4.03 ± 0.12 µM. Moreover, the IC50 in the data set with HepG2 came to 3.41 ± 0.34 µM; on Human HDAC6 it was 4.3 µM; in the data set with LNCap it was 3.4 ± 0.21 µM. Also, the IC50 at 72 h in “in vitro [1]” came to 69.23 ± 0.27 µM; in “in vitro [2]”, 78.42 ± 0.22 µM.
